Consider 2 compounds from US10563204B2, “Methods of treating cancer harboring hemizygous loss of TP53” (priority 2015, dated 2020).

Series [1] concerns POLR2A^neutral cells (HCT116, SW480). In words: Cell proliferation and survival assay, POLR2A^neutral colorectal cancer cells. The series is classed as cell-based, human. On the procedure: (§1) Equal numbers of cells were plated in 12-well plates in triplicate. Cells were fixed with 10% methanol and stained with 0.1% crystal violet (dissolved in 10% methanol) at indicated times. After staining, wells were washed three times with PBS and destained with acetic acid. The absorbance of the crystal violet solution was measured at 590 nm. For cell survival assay, cells were seeded at a concentration of 1,000 cells per well in 96-well plates and treated with indicated concentrations of α-Amanitin or actinomycin D 24 hours later. Cell viability was quantified using WST-1 reagent (Roche) according to the manufacturer's instructions. All experiments were performed in triplicate.

In series [2] the test system is POLR2A^loss cells (SW837, SNU283). The series can be described thus: Cell proliferation and survival assay, POLR2A^loss colorectal cancer cells. The series is classed as cell-based, human. As for the experimental part:
as §1

For another series, the system named is POLR2A^loss HCT116 cells. The series can be described thus: Cell proliferation and survival assay, isogenic HCT116 cells with hemizygous loss of POLR2A (CRISPR/Cas9). The series is classed as cell-based, human. On the procedure: as §1
To exclude the effects of various genetic backgrounds across cell lines, the CRISPR (clustered regularly interspaced short palindromic repeat)/Cas9 system was employed to generate an isogenic HCT116 cell line with hemizygous loss of POLR2A (Wang et al., 2014; Wang et al., 2013). Two single-guide RNAs (sgRNAs) were designed to target the second exon of the POLR2A gene (FIG. 9A). Both of them efficiently targeted and disrupted the POLR2A gene, as shown in the Surveyor analysis (FIG. 9B). Single colonies of HCT116 cells bearing mono-allelic deletion of POLR2A were selected and verified by DNA sequencing (FIG. 9C). Small deletion in the targeted region led to open reading frame shift, producing only a short stretch of the N-terminal peptide without all functional domains of POLR2A. […] However, hemizygous deletion of POLR2A dramatically sensitized HCT116 cells to α-Amanitin treatment with an IC50 of ˜0.1 μg ml^−1, which is 8-fold lower than that of parental HCT116 cells (FIGS. 2G and 2H). […] POLR2A^loss and POLR2A^neutral HCT116 cells expressing Dox-inducible POLR2A shRNA were also generated. […] While a low-dose of Dox (100 ng ml^−1) was sufficient to remarkably kill the POLR2A^loss cells, high doses of Dox only had minimal effects on the POLR2A^neutral cells (FIGS. 2I, 2J, and 9H).

Another series concerns xhCRC and HCT116 cells. The series can be described thus: Sensitivity of isogenic xhCRC and HCT116 cells (TP53 / POLR2A hemizygous deletion) to α-Amanitin. The series is classed as cell-based, human. As for the experimental part:
as §1
(§2) Blockage of RNA polymerase may lead to p53 accumulation and activation (Derheimer et al., 2007). To examine the effects of p53 on cell response to POLR2A inhibition, the concomitant deletion of TP53 and POLR2A was recapitulated in HCT116 and xhCRC cell lines (FIGS. 3A and 10A-10C). […] The RNA polymerase II is in charge of mRNA synthesis, an essential function for any type of cells including therapy-resistant tumor cells. The drug sensitivity of POLR2A^neutral and POLR2A^loss cells to three major chemotherapy drugs for colorectal cancer (5-fluorouracil (5-FU), oxaliplatin, and SN-38) was examined. […]

In another series the test system is POLR2A^loss xhCRC cells. The series is classed as cell-based, human. As to conditions: α-Amanitin combined with each of the three drugs. As for the experimental part:
as §1, §2

Series [3] has as its system POLR2A^neutral xhCRC cells. The series is classed as cell-based, human. Particulars: α-Amanitin combined with each of the three drugs. As for the experimental part: as §1, §2
The next series addresses OATP1B3 (Homo sapiens, UniProt Q9NPD5). As to conditions: free α-Amanitin; transporter on hepatocyte membrane; cited from earlier work.
For series [4] the following is noted: free α-Amanitin; cited from earlier work.

Converted amounts (≈) assume the structure as drawn. Numbered stars: 1 amine (or outer) side, 2 acyl side, 3 side chain; on linkers, the order of the positions; unused ones are H or OH. Bridge positions count the residues as written; N and C are the ends. Square brackets hold non-standard residues; d marks the D form. Peptide text beside a SMILES is read from it. I, II: the chains in the order shown. Actinocin(9to1) = Cc1c2oc3c(C)ccc(C(=O)[*:1])c3nc-2c(C(=O)[*:2])c(N)c1=O; NMeV = CN[C@H](C(=O)O)C(C)C; Sar = CNCC(=O)O

Sequence of OATP1B3 (Q9NPD5 whole entry): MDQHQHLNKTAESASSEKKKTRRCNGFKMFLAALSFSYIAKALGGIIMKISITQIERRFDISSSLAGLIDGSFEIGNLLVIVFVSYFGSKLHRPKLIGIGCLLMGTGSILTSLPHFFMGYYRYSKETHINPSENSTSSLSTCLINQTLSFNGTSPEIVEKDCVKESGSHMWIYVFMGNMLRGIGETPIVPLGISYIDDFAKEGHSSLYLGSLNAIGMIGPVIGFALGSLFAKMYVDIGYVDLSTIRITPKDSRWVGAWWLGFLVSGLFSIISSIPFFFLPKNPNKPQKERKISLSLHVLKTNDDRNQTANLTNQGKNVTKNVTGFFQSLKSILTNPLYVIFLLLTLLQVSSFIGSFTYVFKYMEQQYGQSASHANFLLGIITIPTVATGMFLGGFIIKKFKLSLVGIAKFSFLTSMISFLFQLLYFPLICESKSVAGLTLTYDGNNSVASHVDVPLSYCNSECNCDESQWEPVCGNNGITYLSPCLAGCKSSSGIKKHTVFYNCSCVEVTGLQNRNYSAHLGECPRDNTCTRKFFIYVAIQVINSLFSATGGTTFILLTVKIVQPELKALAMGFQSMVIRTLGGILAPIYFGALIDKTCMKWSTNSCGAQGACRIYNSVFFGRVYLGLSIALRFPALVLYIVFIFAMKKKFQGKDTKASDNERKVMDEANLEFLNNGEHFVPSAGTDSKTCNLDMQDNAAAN

As for `CC[C@H](C)[C@@H]1NC(=O)CNC(=O)[C@@H]2Cc3c([nH]c4cc(O)ccc34)[S+]([O-])C[C@@H](NC(=O)CNC1=O)C(=O)N[C@@H](CC(N)=O)C(=O)N1C[C@H](O)C[C@H]1C(=O)N[C@@H]([C@@H](C)[C@@H](O)CO)C(=O)N2` (stereo in doubt) [α-Amanitin], the “half-maximum inhibitory concentration (IC50)” value in series [1] (POLR2A^neutral cells (HCT116, SW480)) is approximately 1.0 µg/mL. Also, the “cell growth / cell death at high concentrations” value in series [1] (≥1 μg ml^−1, HCT116, SW480) was “complete cell death”; in series [2] (≥1 μg ml^−1, SW837, SNU283), “complete cell death”. Moreover, the “resistance to α-Amanitin after re-expression of exogenous POLR2A” value in series [2] (SNU283 and SW837 re-expressing exogenous POLR2A, level comparable to HCT116 and SW480) is reported as “restored their resistance”. For the same compound, in series [2] (concentrations from 0 to 1.0 μg ml^−1), the “cell-killing effect compared with POLR2A^neutral cells” value is reported as “significantly higher levels of cell-killing effect”. Further, in series [2] (neutral (HCT116, SW480) vs loss (SW837, SNU283)), the “IC50 of POLR2A^neutral cells relative to that of POLR2A^loss cells” value worked out at 10 fold. This compound displayed an IC50 in the series on POLR2A^loss HCT116 cells (HCT116 with hemizygous deletion of POLR2A) of approximately 0.1 µg/mL (≈ 0.109 µM). The “IC50 lower than that of parental HCT116 cells” value with POLR2A^loss HCT116 cells (POLR2A^loss vs parental HCT116) stood at 8 fold. For the same compound, the “change in sensitivity to α-Amanitin” value with xhCRC and HCT116 cells (cells with hemizygous deletion of TP53) is “no significant changes”; with xhCRC and HCT116 cells (cells with hemizygous loss of POLR2A, regardless of TP53 status) it was “markedly sensitized”. For the same compound, the “effect on cell killing by 5-FU, oxaliplatin and SN-38” value in the series with POLR2A^loss xhCRC cells is “significantly enhanced cell-killing effects”; in series [3] it was “no notable effects”. Further, the “binding by OATP1B3” value at OATP1B3 is recorded as “specifically bound”. Besides, the liver toxicity result in series [4] was “toxic to liver”.
Turning to `Cc1c2oc3c(C)ccc(C(=O)N[C@@H]4C(=O)N[C@H](C(C)C)C(=O)N5CCC[C@H]5C(=O)N(C)CC(=O)N(C)[C@@H](C(C)C)C(=O)O[C@@H]4C)c3nc-2c(C(=O)N[C@@H]2C(=O)N[C@H](C(C)C)C(=O)N3CCC[C@H]3C(=O)N(C)CC(=O)N(C)[C@@H](C(C)C)C(=O)O[C@@H]2C)c(N)c1=O` [actinomycin D] (I: T[dV]P[Sar][NMeV] / II: T[dV]P[Sar][NMeV]; ester I:1-I:C, II:1-II:C; linker I:N-II:N via Actinocin(9to1)), the “sensitivity compared with POLR2A^neutral cells” value in series [2] (actinomycin D treatment) is listed as “did not show any greater sensitivity”. Besides, the “difference in sensitivity between POLR2A^loss and POLR2A^neutral HCT116 cells” value with POLR2A^loss HCT116 cells (actinomycin D) is “no substantial difference”.
